Data set [1] is classed as in vivo, human. Conditions: for decrease in Cmax: with rabeprazole vs asciminib alone.
The conditions of data set [2]: 40 mg asciminib b.i.d., cited from earlier work.
The conditions of data set [3]: weak base; cited from earlier work.
The format of data set [4] is in vitro ADME. Conditions: for dissolution rate: 40 mg asciminib, 900 ml, 37°C.
Data set [5] is described as follows: In vitro binding constant of asciminib and cyclodextrin. It is filed as physicochemical.
For data set [6] the following is noted: aqueous solution; cited from earlier work.
The format of data set [7] is in vivo, human. The conditions noted are these: for AUC(0-inf) / AUC(0-t) / Cmax: human, plasma, 40 mg, adjusted G mean, linear mixed effects model; for AUC(0-inf): AUCinf; for AUC(0-t): AUClast.
For data set [8] the following is noted: cited from earlier work.
The conditions of data set [9]: administered concomitantly with an itraconazole capsule formulation; cited from earlier work.
Setting [10] is: oral, Cohort 2, asciminib ± quinidine.
Where [11] appears, read: oral, Cohort 3, asciminib ± rifampicin.
The mark [12] stands for this setting: oral, Cohort 5, asciminib ± clarithromycin.
Where [13] appears, read: po, Cohort 1, asciminib ± itraconazole (oral solution).
Setting [14] is: with clarithromycin vs asciminib alone, cohort 5.
[15] abbreviates: with itraconazole (oral solution) vs asciminib alone, cohort 1.
[16] abbreviates: with itraconazole oral solution vs asciminib alone.
Setting [17] is: with quinidine vs asciminib alone, cohort 2.
The mark [18] stands for this setting: with rifampicin vs asciminib alone, cohort 3.

The text below walks through data of article PMC9283742 (Clinical and Translational Science, 2022).

Structures are written as SMILES. Where two headings read alike, the source gives them in different places.

For `O=C(Nc1ccc(OC(F)(F)Cl)cc1)c1cnc(N2CC[C@@H](O)C2)c(-c2ccn[nH]2)c1` [Asciminib], the AUC(0-inf) in data set [1] (human, plasma, oral, 40 mg) was 9850 ng·h/mL; in [1] (human, plasma, po, 40 mg), 9850 ng·h/mL; in [7] (setting [10]) it was 6750 ng·h/mL; in data set [7] (setting [11]) it was 5630 ng·h/mL; in [7] (setting [12]) it was 5740 ng·h/mL; in data set [7] (setting [13]), 7000 ng·h/mL. Besides, the AUC(0-t) was determined as 9200 ng·h/mL in data set [1] (human, plasma, oral, 40 mg); 9200 ng·h/mL in data set [1] (human, plasma, po, 40 mg); 6700 ng·h/mL in [7] (setting [10]); 5400 ng·h/mL in data set [7] (setting [11]); 5670 ng·h/mL in data set [7] (setting [12]); 6950 ng·h/mL in data set [7] (setting [13]). In addition, the Cmax turned out to be 943 ng/mL in [1] (human, plasma, oral, 40 mg); 943 ng/mL in data set [1] (human, plasma, po, 40 mg); 618 ng/mL in data set [7] (setting [10]); 559 ng/mL in [7] (setting [11]); 679 ng/mL in [7] (setting [13]). For the same molecule, the half-life (as a rule, the time in which the quantity being followed falls by half) in data set [1] (human, plasma, po, 40 mg) is 12.6 h. Besides, the “decrease in Cmax” value in data set [1] is recorded as 9%; in data set [1] (listed as asciminib) it was ~ 9%; in [7] (setting [17]) it was 11.3%. Also, the “AUC0–12 h at steady-state, G mean” value is 6450 ng·h/mL in data set [2] (Japanese subjects (n = 5), GCV% 22.8) and 5370 ng·h/mL in data set [2] (non-Japanese subjects (n = 8), GCV% 39.4). Moreover, in data set [3], the pK a is given as 4.0. The dissolution rate in data set [4] (FaSSIF V2 media alone) amounted to 87%; in data set [4] (FaSSIF V2 media with added cyclodextrin) it was 105%. Moreover, in data set [4] (FaSSIF V2 media alone, acceptor volume 12 ml), the flux was determined as 1.29 µg/min. The calculated flux in data set [4] (FaSSIF V2 media alone, membrane area 3.88 cm^2) is listed as 0.332 μg/min*cm^2; in data set [4] (FaSSIF V2 plus cyclodextrin) it was 0.071 μg/min*cm^2. Moreover, the flux rate in data set [4] (FaSSIF V2 plus cyclodextrin) was 0.28 µg/min. Moreover, the “decrease of asciminib flux through a lipid membrane” value in data set [4] (by cyclodextrin) is ~ 80%. Further, the “drop in binding constant” value in data set [5] (FaSSIF V2 and 0.3× FeSSIF V2 vs buffer) was ~ 65 fold. In data set [5] (acidic pH of FaSSGF and high bile component concentration of FeSSIF V2), the binding to cyclodextrin entry is “practically no binding”. The pH-dependent solubility result in [6] is “high at acidic pH and decreases with increasing pH”. Moreover, the “increase in asciminib exposure” value is reported as ~ 35% in data set [7] (with clarithromycin vs asciminib alone) and ~ 3% in data set [7] (with itraconazole capsule vs asciminib alone). In [7] (setting [14]), the “increase in AUCinf” value is reported as 36%. Also, in data set [7] (setting [14]), the “increase in AUClast” value stood at 37%. The “increase in Cmax” value in [7] (setting [14]) is on record as 19%; in data set [7] (setting [18]), 9%. In addition, the “decrease in G mean of AUCinf” value in data set [7] (setting [15]) is on record as 40.2%. Also, the “decrease in G mean of AUClast” value in data set [7] (setting [15]) is given as 41.2%. The “decrease in asciminib Cmax” value in data set [7] (setting [16]) was ~ 50%; in data set [7] (with itraconazole oral solution vs asciminib alone, listed as asciminib) it was 50.1%. Further, in data set [7] (setting [16]), the “decrease in asciminib exposure (AUC)” value is reported as ~ 40%. Further, the “decrease in asciminib AUC” value in [7] (with quinidine vs asciminib alone) was 13–16%. In addition, the “decrease in AUCinf” value is recorded as 12.9% in data set [7] (setting [17]) and 14.9% in data set [7] (setting [18]). Moreover, the “decrease in AUClast” value in data set [7] (setting [17]) is given as 16.0%; in [7] (setting [18]), 12.7%. Also, the “decrease in asciminib AUC (exposure)” value in data set [7] (with rifampicin vs asciminib alone) was 13–15%; in [7] (with rifampicin vs asciminib alone, listed as asciminib), 15%.
With `C[C@H]1CN(C2COC2)CCN1c1ccc(Nc2cc(-c3ccnc(N4CCn5c(cc6c5CC(C)(C)C6)C4=O)c3CO)cn(C)c2=O)nc1` [fenebrutinib], the “in vitro binding constant with cyclodextrin” value in data set [8] is given as 200,000 /M.
On to `CCc1cc(/C(C)=N/OCc2ccc(C3CCCCC3)c(C(F)(F)F)c2)ccc1CN1CC(C(=O)O)C1` [siponimod], for which the decrease in exposure in data set [9] was 10%–24%.
